This passage reports AD50, Activity and ED50 results from ChEMBL document CHEMBL3227990, “Aminotetralins as narcotic antagonists. Synthesis and opiate-related activity of 1-phenyl-2-aminotetralin derivatives” (J Med Chem, 1979).

Data set [1] is filed under the species Mus musculus. In words: Inhibition of morphine-induced analgesia in mouse assessed as dose required for 50% antagonism of analgesia by tail flick test. It counts as functional.
The species entered for data set [2] is Mus musculus. Description: Toxicity in mouse assessed as convulsant activity. It counts as organism-based. The note with it: in vivo.
The species entered for data set [3] is Mus musculus. In words: Analgesic activity in mouse by hot plate test. It counts as functional. Background: Hot-plate and tail-flick tests time the reaction to a heat stimulus.

On to `CN(CC1CC1)[C@@H]1CCc2ccccc2[C@@]1(O)c1ccccc1.Cl`, for which, in the data set filed under Mus musculus [1], the AD50 entry is listed as “>=30 mg kg-1”. In addition, the Activity entry in the data set filed under Mus musculus [2] is listed as “Toxic”.

As usually defined, the ED50 is the dose that gives a 50% effect, or the effect in half of the subjects. Lower therefore signals an effect at a small dose. Regarding `CO[C@@]1(c2ccccc2)c2ccccc2CC[C@H]1N(C)CC1CC1.Cl`, the AD50 in the data set listed under Mus musculus [1] was 33.5 mg/kg. In the data set filed under Mus musculus [3], the ED50 is no less than 50 mg/kg.

`CCC(=O)O[C@@]1(c2ccccc2)c2ccccc2CC[C@H]1N(C)CC1CC1.Cl`: in the data set listed under Mus musculus [1], the AD50 result was “>=100 mg kg-1”. Besides, the ED50 in the data set listed under Mus musculus [3] amounted to 17.8 mg/kg.

Regarding `CN1CC[C@]23c4c5ccc(O)c4O[C@H]2[C@@H](O)C=C[C@H]3[C@H]1C5` [MORPHINE], the ED50 in the data set filed under Mus musculus [3] amounted to 1.1 mg/kg.
